Source: the supplement of paper PMC10307832

Assays:
Assay in all cases: relative viability (nuclei count vs DMSO), 5 days (fraction); higher = more cells survive
Metformin + Crizotinib = compound: CN(C)C(=N)NC(=N)N [Metformin] + C[C@@H](Oc1cc(-c2cnn(C3CCNCC3)c2)cnc1N)c1c(Cl)ccc(F)c1Cl [Crizotinib] (partner 1 µM)
Summary of the method: (§1)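 Nuclei were stained with Hoechst during a one-step fixation (final 0.05% Triton X-100, 1% formaldehyde, 1 ug/ml Hoechst) carried out 5 days after dosing, then counted on 4× images. The cells, lung cancer lines in 1536-well plates, had been dosed by pin tool the day after seeding with one drug alone or a fixed anchor-drug dose plus five library-drug doses (not always all listed) in √10 steps. Relative viability is the nuclei count in treated wells divided by that in vehicle wells, and each value is the median of duplicate plates.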

Metformin + Linsitinib = compound: CN(C)C(=N)NC(=N)N [Metformin] + C[C@]1(O)C[C@@H](c2nc(-c3ccc4ccc(-c5ccccc5)nc4c3)c3c(N)nccn32)C1 [Linsitinib] (partner 1 µM)
Summary of the method: as §1

Apatinib + Palbociclib = compound: N#CC1(c2ccc(NC(=O)c3cccnc3NCc3ccncc3)cc2)CCCC1 [Apatinib] + CC(=O)c1c(C)c2cnc(Nc3ccc(N4CCNCC4)cn3)nc2n(C2CCCC2)c1=O [Palbociclib] (partner 0.5 µM)
Summary of the method: as §1

Apatinib + Decitabine = compound: N#CC1(c2ccc(NC(=O)c3cccnc3NCc3ccncc3)cc2)CCCC1 [Apatinib] + Nc1ncn([C@H]2C[C@H](O)[C@@H](CO)O2)c(=O)n1 [Decitabine] (partner 2 µM)
Summary of the method: as §1

Cell Line	relative viability (Metformin + Crizotinib; first compound 10 µM)	relative viability (Metformin + Crizotinib; first compound 31.62 µM)	relative viability (Metformin + Crizotinib; first compound 100 µM)	relative viability (Metformin + Crizotinib; first compound 316.23 µM)	relative viability (Metformin + Crizotinib; first compound 1000 µM)	relative viability (Metformin + Linsitinib; first compound 10 µM)	relative viability (Metformin + Linsitinib; first compound 31.62 µM)	relative viability (Metformin + Linsitinib; first compound 100 µM)	relative viability (Metformin + Linsitinib; first compound 316.23 µM)	relative viability (Metformin + Linsitinib; first compound 1000 µM)	relative viability (Apatinib + Palbociclib; first compound 0.08 µM)	relative viability (Apatinib + Palbociclib; first compound 0.253 µM)	relative viability (Apatinib + Palbociclib; first compound 0.8 µM)	relative viability (Apatinib + Palbociclib; first compound 2.53 µM)	relative viability (Apatinib + Palbociclib; first compound 8 µM)	relative viability (Apatinib + Decitabine; first compound 0.08 µM)	relative viability (Apatinib + Decitabine; first compound 0.253 µM)	relative viability (Apatinib + Decitabine; first compound 0.8 µM)	relative viability (Apatinib + Decitabine; first compound 2.53 µM)	relative viability (Apatinib + Decitabine; first compound 8 µM)
LXF-289	0.764	0.759	0.812	0.776	0.794	0.923	0.912	0.996	0.879	0.915	0.594	0.593	0.567	0.568	0.562	0.4	0.386	0.391	0.565	0.594
NCI-H650	0.709	0.669	0.908	0.709	0.862	0.859	0.955	0.845	0.983	1.3	0.316	0.337	0.372	0.272	0.264	0.35	0.331	0.332	0.418	0.626
NCI-H1975	1.09	1.12	1.21	1.06	1.27	1.09	1.26	1.07	1.18	1.31	0.654	0.634	0.597	0.522	0.526	0.406	0.372	0.413	0.381	0.466
ChaGo-K-1	1.16	1.07	1.09	1.13	1.19	–	–	–	–	–	0.993	1.04	0.908	0.9	0.772	0.536	0.56	0.522	0.53	0.43
COR-L 105	0.71	0.841	0.821	0.745	0.697	1.06	1.23	0.977	0.87	0.815	0.428	0.397	0.365	0.365	0.42	0.706	0.716	0.631	0.711	0.632
A-427	0.802	1.17	0.84	0.926	0.896	1.09	1.13	1.09	1.1	1.04	0.52	0.534	0.507	0.518	0.453	0.604	0.583	0.533	0.575	0.618
NCI-H2087	0.813	0.726	0.682	0.849	0.638	0.609	0.908	0.805	0.712	0.782	0.231	0.256	0.248	0.266	0.178	0.272	0.285	0.331	0.239	0.236
NCI-H358	0.551	0.448	0.587	0.311	0.507	1.04	0.937	0.959	1.13	1.31	0.137	0.133	0.123	0.124	0.123	0.225	0.219	0.24	0.218	0.316
NCI-H647	0.982	1.02	0.955	0.939	0.942	1.11	1.14	1.24	1.19	1.2	0.516	0.451	0.336	0.384	0.303	0.376	0.413	0.478	0.414	0.583
